Literature values as cited in patent US20030125233A1, “Use of urokinase inhibitors for the treatment and/or prevention of pulmonary hypertension and/or cardiac remodelling” (priority 2000, published 2003).

Tests used:
[1] = test system: angiogenesis/capillary network formation; conditions: Alliegro et al. 1991
tumor metastasis = conditions: Kellen et al. 1988

## N=C(N)NC(=O)c1nc(Cl)c(N)nc1N [amiloride]
[1]
  angiogenesis/capillary network formation in vitro: inhibit
Tumor metastasis
  tumor metastasis in vivo: inhibit
